For 18 compounds, IC50 results are on record in patent US8367698B2, “3-substituted sulfonyl piperidine derivative” (MSD K.K., priority 2008, dated 2013).

For this test, the target named is T1, human LCE (Homo sapiens, UniProt Q9H5J4).
T1 sequence (Q9H5J4 1-265): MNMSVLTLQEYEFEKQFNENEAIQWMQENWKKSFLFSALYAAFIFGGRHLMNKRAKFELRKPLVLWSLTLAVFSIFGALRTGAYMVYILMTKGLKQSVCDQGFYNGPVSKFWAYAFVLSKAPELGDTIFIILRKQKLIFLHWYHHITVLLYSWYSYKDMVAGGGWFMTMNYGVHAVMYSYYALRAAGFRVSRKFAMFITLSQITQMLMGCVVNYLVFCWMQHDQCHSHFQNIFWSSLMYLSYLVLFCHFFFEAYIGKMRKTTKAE
Kind of test: LCE enzymatic activity inhibition test. It counts as biochemical. The settings on record: palmitoyl-CoA and [14C]-malonyl-CoA substrate, 37° C. for 90 minutes, pH 6.5. On the procedure:
A test compound was dissolved in dimethylsulfoxide (DMSO) at 10 mM, and then, the resulting solution was further diluted with DMSO to prepare a 1000-fold stock solution having a concentration 1000 times higher than the concentration to be evaluated. An LCE enzymatic activity inhibition test was carried out by a modified method of Moon (J. Biol. Chem., Vol. 276, pp. 45358-45366, (2001)) et al. That is, the diluted test compound was added to a 96-well assay plate (Corning, 96-Well Assay Block) in an amount of 1.0 μL per well, and thereafter, 50 μL of a phosphate buffer solution (a 100 mM potassium phosphate buffer solution (pH 6.5)), 25 μL of a substrate solution (a 100 mM potassium phosphate buffer solution (pH 6.5), 4.0 μM rotenone, 80 μM fatty acid-free bovine serum albumin, 160 μM palmitoyl-CoA, 80 μM malonyl-CoA, 3.5 μM [^14C]-malonyl-CoA (1.92 GBq/mmol, manufactured by Amersham, Inc.)) was added to each well, and further, 25 μL of an enzyme solution (a 100 mM potassium phosphate buffer solution (pH 6.5), 100 μg/mL human LCE) was added thereto. Then, the upper part of the plate was hermetically closed with a seal member, and the plate was incubated at 37° C. for 90 minutes while gently shaking and stirring. Thereafter, to each well, 100 μL of 5 N HCl was added and the assay plate was stirred at room temperature for 5 minutes, whereby the enzymatic reaction was stopped and also acyl-CoA was hydrolyzed. Thereafter, the enzymatic reaction solution in each well was adsorbed to each well of a 96-well GF/C filter plate (PerkinElmer, Unifilter 96GF/C) through which water had been passed in advance, and then, each well was washed with water to remove unadsorbed malonyl-CoA and the GF/C filter plate was dried at 50° C. for 60 minutes. Thereafter, to each well, 30 μL of a scintillator (PerkinElmer, Microscinti 0) was added and the upper part of the plate was sealed, and the radioactivity of the fixed [^14C] was measured using a microplate scintillation counter (PerkinElmer, Top Count) from which the enzymatic activity was determined. The human LCE enzyme inhibitory activity of the test compound was calculated using the radioactivity obtained from a well to which DMSO containing no test compound is added as a control.
In turn, `CC(C)Oc1ccc(C(=O)NCC2(c3ccccc3)CCCN(S(=O)(=O)c3cn(C)cn3)C2)cc1` (stereo not drawn) [Example 74, 4-Isopropoxy-N-({1-[(1-methyl-1H-imidazol-4-yl)sulfonyl]-3-phenylpiperidin-3-yl}methyl)benzamide] had a half-maximal inhibitory concentration (IC50) of 17.4 nM.

`CCC1(C(=O)Nc2cc(OC(C)C)[nH]n2)CCCN(S(=O)(=O)c2cn(C)cn2)C1` (stereo not drawn) [Example 104, 3-Ethyl-N-(5-isopropoxy-1H-pyrazol-3-yl)-1-[(1-methyl-1H-imidazol-4-yl)sulfonyl]piperidine-3-carboxamide] showed an IC50 of 38 nM.

In the case of `CC(C)Oc1ccc(C(=O)NCC2(c3ccccc3)CCCN(S(=O)(=O)c3cn(C)cn3)C2)nc1` (stereo not drawn) [Example 79, 5-Isopropoxy-N-({1-[(1-methyl-1H-imidazol-4-yl)sulfonyl]-3-phenylpiperidin-3-yl}methyl)pyridine-2-carboxamide], the IC50 turned out to be 49 nM.

`CC(C)Oc1ccc(NC(=O)[C@@H]2C[C@@H]3CC[C@H]2N(S(=O)(=O)c2ccccn2)C3)nc1` (relative stereo) [Example 47, (1R*,4S*,6R*)-N-(5-Isopropoxypyridin-2-yl)-2-(pyridin-2-ylsulfonyl)-2-azabicyclo[2.2.2]octane-6-carboxamide] came in with an IC50 of 19 nM.

In the case of `COc1ccccc1C(=O)NCC1(c2ccccc2)CCCN(S(=O)(=O)c2ccccn2)C1` (stereo not drawn) [Example 64, 2-Methoxy-N-{[3-phenyl-1-(pyridin-2-ylsulfonyl)piperidin-3-yl]methyl}benzamide], 20 nM corresponded to half-maximal inhibition (IC50).

In turn, `CC(C)Cc1cc(C(=O)NCC2(c3ccccc3)CCCN(S(=O)(=O)c3cn(C)cn3)C2)[nH]n1` (stereo not drawn) [Example 98, 3-Isobutyl-N-({1-[(1-methyl-1H-imidazol-4-yl)sulfonyl]-3-phenylpiperidin-3-yl}methyl)-1H-pyrazole-5-carboxamide] displayed an IC50 of 12 nM.

In turn, `CC(C)Oc1ccc(C(=O)NCC2(c3ccccc3)CCCN(S(=O)(=O)c3ccccn3)C2)nc1` (stereo not drawn) [Example 78, 5-Isopropoxy-N-{[3-phenyl-1-(pyridin-2-ylsulfonyl)piperidin-3-yl]methyl}pyridine-2-carboxamide] registered an IC50 of 14 nM.

`CC(C)Oc1ccc(C(=O)NCC2(c3ccccc3)CCCN(S(=O)(=O)c3ccccn3)C2)cc1` (stereo not drawn) [Example 73, 4-Isopropoxy-N-{[3-phenyl-1-(pyridin-2-ylsulfonyl)piperidin-3-yl]methyl}benzamide] returned an IC50 of 3.7 nM.

Consider `CC(C)Oc1ccc(NC(=O)[C@@H]2C[C@@H]3CC[C@H]2N(S(=O)(=O)c2cn(C)cn2)C3)nc1` (relative stereo) [Example 48, (1R*,4S*,6R*)-N-(5-isopropoxypyridin-2-yl)-2-[(1-methyl-1H-imidazol-4-yl)sulfonyl]-2-azabicyclo[2.2.2]octane-6-carboxamide], for which the IC50 is 159 nM.

The compound `CC(C)Oc1ccc(NC(=O)[C@@H]2C[C@@H]3CC[C@H]2N(S(=O)(=O)c2cn(C)cn2)C3)cc1` (relative stereo) [Example 26, (1R*,4S*,6R*)-N-(4-Isopropoxyphenyl)-2-[(1-methyl-1H-imidazol-4-yl)sulfonyl]-2-azabicyclo[2.2.2]octane-6-carboxamide] had an IC50 of 268 nM.

On to `CC(C)Oc1cc(NC(=O)[C@@H]2C[C@@H]3CC[C@H]2N(S(=O)(=O)c2cn(C)cn2)C3)n[nH]1` (relative stereo) [Example 105, (1R*,4S*,6R*)-N-(5-Isopropoxy-1H-pyrazol-3-yl)-2-[(1-methyl-1H-imidazol-4-yl)sulfonyl]-2-azabicyclo[2.2.2]octane-6-carboxamide], for which the IC50 worked out at 132 nM.

In the case of `CCC1(CNC(=O)c2ccc(OC(C)C)cc2)CCCN(S(=O)(=O)c2ccccn2)C1` (stereo not drawn) [Example 85, N-{[3-Ethyl-1-(pyridin-2-ylsulfonyl)piperidin-3-yl]methyl}-4-isopropoxybenzamide], the IC50 stood at 14 nM.

In the case of `CCC1(C(=O)Nc2ccc(OC(C)C)cn2)CCCN(S(=O)(=O)c2cn(C)cn2)C1` (stereo not drawn) [Example 103, 3-Ethyl-N-(5-isopropoxypyridin-2-yl)-1-[(1-methyl-1H-imidazol-4-yl)sulfonyl]piperidine-3-carboxamide], the IC50 stood at 35 nM.

With `CC(C)Oc1ccc(C(=O)NCC2(C)CCCN(S(=O)(=O)c3ccccn3)C2)cc1` (stereo not drawn) [Example 82, 4-Isopropoxy-N-{[3-methyl-1-(pyridin-2-ylsulfonyl)piperidin-3-yl]methyl}benzamide], inhibition was half-maximal at 60 nM (IC50).

With `CCCS(=O)(=O)N1CCCC(CNC(=O)c2ccc(OC(C)C)cn2)(c2ccccc2)C1` (stereo not drawn) [Example 76, 5-Isopropoxy-N-{[3-phenyl-1-(propylsulfonyl)piperidin-3-yl]methyl}pyridine-2-carboxamide], half-maximal inhibition (IC50) required 44 nM.

With `CCCCS(=O)(=O)N1C[C@H]2CC[C@@H]1[C@H](C(=O)Nc1cc(C3CC3)n[nH]1)C2` (relative stereo) [Example 42, (1R*,4S*,6R*)-2-(Butylsulfonyl)-N-(3-cyclopropyl-1H-pyrazol-5-yl)-2-azabicyclo[2.2.2]octane-6-carboxamide], the IC50 was 155 nM.

Compound `CC(C)Oc1ccc(C(=O)NCC2(C)CCCN(S(=O)(=O)c3ccccc3)C2)cc1` (stereo not drawn) [Example 81, 4-Isopropoxy-N-{[3-methyl-1-(phenylsulfonyl)piperidin-3-yl]methyl}benzamide] yielded a half-maximal inhibitory concentration (IC50) of 51 nM.

`CCC1(CNC(=O)c2ccc(OC(C)C)cc2)CCCN(S(=O)(=O)c2cn(C)cn2)C1` (stereo not drawn) [Example 86, N-({3-Ethyl-1-[(1-methyl-1H-imidazol-4-yl)sulfonyl]piperidin-3-yl}methyl)-4-isopropoxybenzamide] displayed a concentration for half-maximal inhibition (IC50) of 284 nM.
